Measured values as given in publication PMC10787893, “Expression and characterization of the new antimicrobial peptide AP138L-arg26 anti Staphylococcus aureus” (Applied Microbiology and Biotechnology, 2024).
Values after ≈ are worked out from the molar mass of the structure shown. Bridge positions count the residues as written; N and C are the ends. Peptide text beside a SMILES is read from it.

Tests used:
S. aureus CVCC 546 [1] = assay: Intracellular ATP determination; assay type: cell-based, Staphylococcus aureus
From the text: As ATP is the most direct source of energy for living organisms, the effect of antimicrobial peptides on ATP was explored with an ATP assay kit (Beyotime, Shanghai, China). […] The luminescence was detected using an Infinite M200 Microplate reader (Tecan, Luminescence signals).

S. aureus = assay: Intracellular LDH activity; assay type: cell-based, Staphylococcus aureus; conditions: 6 h, treated cells/the control, n = 3
Description: As disruption of the cell membrane structure leads to the release of LDH from the cytoplasm into the culture medium, the detection of LDH in bacteria can further reveal the antibacterial mechanism (Shi et al. [2022]). Briefly, S. aureus cells were co-incubated with AP138L-arg26 for 6 h. Later, the pellets were collected and sonicated (3 s/10 s, 30 times). The intracellular LDH activity was detected using an Infinite M200 Microplate reader (Tecan, Luminescence signals). The calculated results of LDH% = treated cells/the control.

[2] = tested on: Staphylococcus epidermidis ATCC 12228; assay: MIC and MBC, broth microdilution; assay type: cell-based
Description: (§1) To determine the MIC values of AP138L-arg26, we used the broth microdilution technique as previously described (Andrews. [2001]; Wiegand et al. [2008]). In brief, AP138L-arg26 peptide were diluted from 1280 to 2.5 µg/mL and added to a 96-cells plate with 10 µL per well. The bacteria in the logarithmic stage were diluted to 10^5 CFU/mL with 90 µL per well. […] The MBC method was also based on the CLSI 2021 guidelines.

[3] = tested on: Staphylococcus aureus E48; assay: MIC and MBC, broth microdilution; assay type: cell-based
Description: as §1

[4] = tested on: Staphylococcus aureus CVCC 546; assay: MIC and MBC, broth microdilution; assay type: cell-based
Description: as §1

[5] = tested on: Streptococcus agalactiae CAU-FRI-2022-01; assay: MIC and MBC, broth microdilution; assay type: cell-based
Description: as §1

[6] = tested on: Staphylococcus aureus ATCC 43300; assay: MIC and MBC, broth microdilution; assay type: cell-based
Description: as §1

[7] = tested on: Streptococcus agalactiae CAU-FRI-2022-02; assay: MIC and MBC, broth microdilution; assay type: cell-based
Description: as §1

[8] = tested on: Streptococcus agalactiae ATCC 13813; assay: MIC and MBC, broth microdilution; assay type: cell-based
Description: as §1

[9] = tested on: Streptococcus dysgalactiae CVCC 3938; assay: MIC and MBC, broth microdilution; assay type: cell-based
Description: as §1

[10] = tested on: Staphylococcus aureus CAAS-FRI-2023-01; assay: MIC and MBC, broth microdilution; assay type: cell-based
Description: as §1

[11] = tested on: Staphylococcus aureus CAAS-FRI-2023-02; assay: MIC and MBC, broth microdilution; assay type: cell-based
Description: as §1

[12] = tested on: Staphylococcus epidermidis ATCC 35984; assay: MIC and MBC, broth microdilution; assay type: cell-based
Description: as §1

[13] = tested on: Staphylococcus aureus ATCC 25923; assay: MIC and MBC, broth microdilution; assay type: cell-based
Description: as §1

[14] = tested on: intracellular S. aureus CVCC 546 in mouse macrophages RAW264.7 and bovine endometrial epithelial cells BNCC359233; assay: Intracellular antibacterial activity; assay type: cell-based, Staphylococcus aureus; conditions: 5 × MIC; n = 3
From the text: The method of intracellular bactericidal effect was described previously (Wang et al. [2018]). Only the number of cells and bacteria changed from 2.5 × 10^5 to 2 × 10^5 cells/mL.

S. aureus CVCC 546 [15] = assay: Thermal stability, MIC after treatment; assay type: physicochemical, Staphylococcus aureus
S. aureus CVCC 546 [16] = assay: Salt stability, MIC after treatment; assay type: physicochemical, Staphylococcus aureus; conditions: then MIC assay
S. aureus CVCC 546 [17] = assay: Artificial intestinal juice (trypsin) stability, MIC after treatment; assay type: in vitro ADME, Staphylococcus aureus; conditions: then MIC assay
S. aureus CVCC 546 [18] = assay: SYTO9/PI membrane integrity assay; assay type: cell-based, Staphylococcus aureus; conditions: 2 × MIC, 37 °C, 1 h; 1 × 10^9 CFU/mL; fluorescence microscopy
From the text: To explore the disruption of bacterial cell membranes by the AP138L-arg26, a SYTO9/PI kit was used to detect the integrity of cell membranes (L7007 LIVE/DEAD^R BacLight™ Bacerial Viability Kits). The unique feature of this kit is that SYTO9 alone can pass through integral cell membranes, while PI can only penetrate damaged cell membranes. […] Finally, the results were observed using fluorescence microscopy.

S. aureus CVCC 546 [19] = assay: pH stability, MIC after treatment; assay type: physicochemical, Staphylococcus aureus
[20] = 99.99% of bacteria killed, plated on MHA
[21] = broth microdilution, 10^5 CFU/mL, 37 °C, 18 h

Structure (SMILES): CC[C@H](C)[C@@H]1NC(=O)[C@H](CO)NC(=O)[C@H](CCCCN)NC(=O)[C@@H]2CSSC[C@@H](C(=O)N[C@@H](Cc3ccc(O)cc3)C(=O)O)NC(=O)[C@H](CCCCN)NC(=O)[C@@H]3CSSC[C@H](NC(=O)[C@H](CCCNC(=N)N)NC(=O)[C@H](CC(C)C)NC(=O)[C@H](CC(=O)O)NC(=O)[C@H](CC(=O)O)NC(=O)[C@H](CCC(=O)O)NC(=O)[C@H](CO)NC(=O)[C@H](Cc4c[nH]c5ccccc45)NC(=O)[C@@H]4CCCN4C(=O)CNC(=O)[C@H](CC(N)=O)NC(=O)[C@@H](NC(=O)CNC(=O)[C@H](Cc4ccccc4)NC(=O)CN)CSSC[C@H](NC(=O)[C@H](Cc4ccc(O)cc4)NC(=O)CNC(=O)CNC(=O)[C@H](CCCNC(=N)N)NC(=O)[C@H](Cc4ccc(O)cc4)NC(=O)CNC(=O)[C@H](CCCCN)NC1=O)C(=O)N[C@@H](C)C(=O)N[C@@H](CCCCN)C(=O)NCC(=O)NCC(=O)N[C@@H](Cc1ccccc1)C(=O)N[C@@H](C(C)C)C(=O)N3)C(=O)N[C@@H](Cc1c[nH]cn1)C(=O)N[C@@H](CCCNC(=N)N)C(=O)N[C@@H](Cc1c[nH]cn1)C(=O)N2 [AP138L-arg26] (H-GFGCNGPWSEDDLRCHRHCKSIKGYRGGYCAKGGFVCKCY-OH; disulfide 4-30, 15-37, 19-39; N-terminus and C-terminus assumed)
- intracellular ATP, times higher than the untreated group (S. aureus CVCC 546 [1]; 1 × MIC): 7.6 times
- intracellular ATP, times higher than the untreated group (S. aureus CVCC 546 [1]; 2 × MIC): 8.2 times
- intracellular ATP, times higher than the untreated group (S. aureus CVCC 546 [1]; 4 × MIC (maximum)): 8.5 times
- LDH activity % (S. aureus; 1 × MIC): 24%
- LDH activity % (S. aureus; 2 × MIC): 16%
- LDH activity % (S. aureus; 4 × MIC): 16%
- MBC [2, 20]: 16 µg/mL (≈ 3.59 µM)
- MIC [2, 21]: 4 µg/mL (≈ 0.898 µM)
- MBC [3, 20]: 8 µg/mL (≈ 1.8 µM)
- MIC [3, 21]: 2 µg/mL (≈ 0.449 µM)
- MBC [4, 20]: 32 µg/mL (≈ 7.18 µM)
- MIC [4, 21]: 4 µg/mL (≈ 0.898 µM)
- MBC [5, 20]: 32 µg/mL (≈ 7.18 µM)
- MIC [5, 21]: 4 µg/mL (≈ 0.898 µM)
- MBC [6, 20]: 8 µg/mL (≈ 1.8 µM)
- MIC [6, 21]: 8 µg/mL (≈ 1.8 µM)
- MBC [7, 20]: 32 µg/mL (≈ 7.18 µM)
- MIC [7, 21]: 4 µg/mL (≈ 0.898 µM)
- MBC [8, 20]: 8 µg/mL (≈ 1.8 µM)
- MIC [8, 21]: 4 µg/mL (≈ 0.898 µM)
- MBC [9, 20]: 32 µg/mL (≈ 7.18 µM)
- MIC [9, 21]: 4 µg/mL (≈ 0.898 µM)
- MBC [10, 20]: 16 µg/mL (≈ 3.59 µM)
- MIC [10, 21]: 4 µg/mL (≈ 0.898 µM)
- MBC [11, 20]: 32 µg/mL (≈ 7.18 µM)
- MIC [11, 21]: 8 µg/mL (≈ 1.8 µM)
- MBC [12, 20]: 16 µg/mL (≈ 3.59 µM)
- MIC [12, 21]: 8 µg/mL (≈ 1.8 µM)
- MBC [13, 20]: 32 µg/mL (≈ 7.18 µM)
- MIC [13, 21]: 16 µg/mL (≈ 3.59 µM)
- intracellular bacteria killed [14]: more than 70%
- MIC, Heat (20 °C) (S. aureus CVCC 546 [15]; peptide incubated at 20 °C for 1 h, then MIC assay): 8 µg/mL (≈ 1.8 µM)
- MIC, Heat (40 °C) (S. aureus CVCC 546 [15]; peptide incubated at 40 °C for 1 h, then MIC assay): 8 µg/mL (≈ 1.8 µM)
- MIC, Heat (60 °C) (S. aureus CVCC 546 [15]; peptide incubated at 60 °C for 1 h, then MIC assay): 8 µg/mL (≈ 1.8 µM)
- MIC, Heat (80 °C) (S. aureus CVCC 546 [15]; peptide incubated at 80 °C for 1 h, then MIC assay): 8 µg/mL (≈ 1.8 µM)
- MIC, Heat (100 °C) (S. aureus CVCC 546 [15]; peptide incubated at 100 °C for 1 h, then MIC assay): > 64 µg/mL
- MIC, Control (without treatment) (S. aureus CVCC 546 [15]; peptide without treatment, reference value of the stability tests): 8 µg/mL (≈ 1.8 µM)
- MIC, CaCl2 (2.5 mM) (S. aureus CVCC 546 [16]; peptide incubated with 2.5 mM CaCl2 for 1 h at 37 °C): 8 µg/mL
- MIC, KCl (2.5 mM) (S. aureus CVCC 546 [16]; peptide incubated with 2.5 mM KCl for 1 h at 37 °C): 8 µg/mL
- MIC, MgCl2 (2.5 mM) (S. aureus CVCC 546 [16]; peptide incubated with 2.5 mM MgCl2 for 1 h at 37 °C): 16 µg/mL
- MIC, CaCl2 (5 mM) (S. aureus CVCC 546 [16]; peptide incubated with 5 mM CaCl2 for 1 h at 37 °C): 16 µg/mL
- MIC, KCl (5 mM) (S. aureus CVCC 546 [16]; peptide incubated with 5 mM KCl for 1 h at 37 °C): 8 µg/mL
- MIC, MgCl2 (5 mM) (S. aureus CVCC 546 [16]; peptide incubated with 5 mM MgCl2 for 1 h at 37 °C): 16 µg/mL
- MIC, NaCl (50 mM) (S. aureus CVCC 546 [16]; peptide incubated with 50 mM NaCl for 1 h at 37 °C): 8 µg/mL
- MIC, NaCl (100 mM) (S. aureus CVCC 546 [16]; peptide incubated with 100 mM NaCl for 1 h at 37 °C): 8 µg/mL
- MIC, NaCl (150 mM) (S. aureus CVCC 546 [16]; peptide incubated with 150 mM NaCl for 1 h at 37 °C): 8 µg/mL
- MIC, NaCl (200 mM) (S. aureus CVCC 546 [16]; peptide incubated with 200 mM NaCl for 1 h at 37 °C): 16 µg/mL
- MIC, NaCl (300 mM) (S. aureus CVCC 546 [16]; peptide incubated with 300 mM NaCl for 1 h at 37 °C): 16 µg/mL
- MIC, CaCl2 ([…]) (S. aureus CVCC 546 [16]; peptide incubated with […] CaCl2 for 1 h at 37 °C): 8 µg/mL
- MIC, KCl ([…]) (S. aureus CVCC 546 [16]; peptide incubated with […] KCl for 1 h at 37 °C): 8 µg/mL
- MIC, MgCl2 ([…]) (S. aureus CVCC 546 [16]; peptide incubated with […] MgCl2 for 1 h at 37 °C): 8 µg/mL
- MIC, Intestinal juice (0.25 h) (S. aureus CVCC 546 [17]; peptide in artificial intestinal juice for 0.25 h): > 64 µg/mL
- MIC, Intestinal juice (0.5 h) (S. aureus CVCC 546 [17]; peptide in artificial intestinal juice for 0.5 h): > 64 µg/mL
- MIC, Intestinal juice (1 h) (S. aureus CVCC 546 [17]; peptide in artificial intestinal juice for 1 h): > 64 µg/mL
- MIC, Intestinal juice (2 h) (S. aureus CVCC 546 [17]; peptide in artificial intestinal juice for 2 h): > 64 µg/mL
- cells stained red by PI (S. aureus CVCC 546 [18]): more than 50%
- antimicrobial activity after different pH values (2–10) (S. aureus CVCC 546 [19]; pH 2–10, 1 h, MIC assay): unaffected
- MIC, pH 2 (S. aureus CVCC 546 [19]; peptide incubated at pH 2 for 1 h at 37 °C, then MIC assay): 8 µg/mL
- MIC, pH 4 (S. aureus CVCC 546 [19]; peptide incubated at pH 4 for 1 h at 37 °C, then MIC assay): 16 µg/mL
- MIC, pH 6 (S. aureus CVCC 546 [19]; peptide incubated at pH 6 for 1 h at 37 °C, then MIC assay): 16 µg/mL
- MIC, pH 8 (S. aureus CVCC 546 [19]; peptide incubated at pH 8 for 1 h at 37 °C, then MIC assay): 8 µg/mL
- MIC, pH 10 (S. aureus CVCC 546 [19]; peptide incubated at pH 10 for 1 h at 37 °C, then MIC assay): 16 µg/mL
